Measured values published in US5723501A, “Pharmaceutical compositions containing 3-IODO-1,2-propanediol having mucolytic activity” (Carter-Wallace, Inc., priority 1996, dated 1998).
“And” between values parts separate entries of the source, which are not always exact repeats. Identical values can stand only once. “Also recorded” adds a separate entry of the source.

How the values were obtained:
[1] = system: mechanical or electrical stimulation in the cat; conditions: cited from earlier work
[2] = system: tracheal secretion of phenol red in mice; experiment: Tracheal secretion of phenol red in male mice (Engler and Szelenyi method); type: in vivo; conditions: for ED50: Mus musculus, po, 0.5 h, read-out: ED50 (dose stimulating tracheal secretion of phenol red by 50% over the control); for ED50 / effect on tracheal secretion of phenol red, dose dependence / ED50 (dose stimulating tracheal secretion of phenol red by 50% over the control): 30 minutes; for ED50 / ED50 (dose stimulating tracheal secretion of phenol red by 50% over the control): male mice; for Phenol Red Secretion, Treated: 30 min before phenol red i.p., * P<0.05 vs control; for Phenol Red Secretion, Treated / % Change in phenol red secretion: mean ± SFM; for % Change in phenol red secretion: vs control
Text: Adult male mice weighing 14-40 g were used in this investigation. Animals were acclimatized to the laboratory environment for a minimum of five days prior to use in the experimental procedures. Housing was provided in environmentally controlled quarters in which temperature, humidity and ventilation were regulated based on the needs of the species. Husbandry practices and veterinary care were in accordance with the Guide for Care and Use of Laboratory Animals (NIH Publication No. 85-23). Tracheal secretion in mice, expressed by the amount of phenol red dye secreted into the lumen of the trachea was measured according to the method of Engler and Szelenyi. Male mice were randomly placed into appropriate treatment groups. On each experiment day, one to four mice in a group received orally either vehicle (distilled water or 1% acacia, 0.1 mL/10 g body weight) or a drug. Each drug was tested at a minimum of three different dose levels. Each drug dosage was tested in at least six animals. Drugs were administered orally (0.1 mL/10 g body weight) 30 minutes prior to intraperitoneal injection of phenol red (500 mg/kg: 5% solution in physiological saline, 0.1 mL/10 g body weight). Thirty minutes after phenol red injection the animals were sacrificed by exposure to CO2. The whole trachea was carefully excised and washed in 1.0 mL physiological saline for a period of 30 minutes. Subsequently, 0.1 mL of 1 M NaOH was added to the tracheal washings to stabilize the pH of the lavage fluid. The amount of phenol red was measured photometrically at […] in a Beckman Model 25 spectrophotometer. The amount of phenol red secreted in the tracheal lumen, expressed in μg/10 g body weight/hr, was determined by the formula of Graziani and Cazzulani: [formula] where: S=phenol red secreted per 10 g of body weight per hour (μg/10 g/hr). s=intensity of emission of the phenol red contained in 1.0 mL of tracheal lavage as determined from the standard curve of phenol red (0.5, 1, 5, and 10 μg/mL). V=volume of the tracheal lavage (1.0 mL). W=body weight of the mice expressed in grams. The results were expressed as mean ±S.F.M. Statistical significance was evaluated using the t-test for independent means, where P<0.05 is considered to be significant as compared to the appropriate control. The % increase in tracheal secretion of phenol red by each dose of a drug was determined by using the following formula: [formula] T=tracheal secretion of phenol red (μg/10 g/hr) in treated mice each day. C=tracheal secretion of phenol red (μg/10 g/hr) in untreated mice each day. The line of best fit was calculated from the dose response curve of each drug and the ED50 (mg/kg), i.e. the dose stimulating tracheal secretion of phenol red by 50% over the control level, was determined and 95% confidence limits were also calculated.

[3] = system: citric acid (aerosol)-induced coughing responses in guinea pigs; conditions: cited from earlier work
[4] = system: tracheal secretion in mice; conditions: cited from earlier work

Row | SMILES | ED50 ([2]; p.o.) [mg/kg] | Phenol Red Secretion, Treated ([2]; oral dose 0.3 mg/kg) [μg/10 g/hr] | % Change in phenol red secretion ([2]; oral dose 0.3 mg/kg) [%] | Phenol Red Secretion, Treated ([2]; oral dose 1.0 mg/kg) [μg/10 g/hr] | % Change in phenol red secretion ([2]; oral dose 1.0 mg/kg) [%] | Phenol Red Secretion, Treated ([2]; oral dose 10.0 mg/kg) [μg/10 g/hr] | % Change in phenol red secretion ([2]; oral dose 10.0 mg/kg) [%] | Phenol Red Secretion, Treated ([2]; oral dose 30.0 mg/kg) [μg/10 g/hr] | % Change in phenol red secretion ([2]; oral dose 30.0 mg/kg) [%] | stimulation of tracheal secretion of phenol red ([2]; oral, mice) | effect on tracheal secretion of phenol red, dose dependence ([2]; p.o., mice) | oral ED50 reported earlier by others [4] | Phenol Red Secretion, Treated ([2]; oral dose 100.0 mg/kg) [μg/10 g/hr] | % Change in phenol red secretion ([2]; oral dose 100.0 mg/kg) [%] | Phenol Red Secretion, Treated ([2]; oral dose 50.0 mg/kg) [μg/10 g/hr] | % Change in phenol red secretion ([2]; oral dose 50.0 mg/kg) [%] | Phenol Red Secretion, Treated ([2]; oral dose 200.0 mg/kg) [μg/10 g/hr] | % Change in phenol red secretion ([2]; oral dose 200.0 mg/kg) [%] | also measured
1 | OCC(O)CI (stereo not drawn) [3-iodo-1,2-propanediol] | 0.75 | 1.02 ± 0.06 | 37.5 ± 8.01 | 1.16 ± 0.13 | 56.55 ± 17.83 | 1.32 ± 0.16 | 77.36 ± 21.67 | 1.56 ± 0.23 | 110.45 ± 31.5 | stimulates tracheal secretion of phenol red; also recorded: effective in stimulating tracheal secretion of phenol red | dose-dependent increase; also recorded: dose-dependent stimulation | – | – | – | – | – | – | – | antitussive effect [1]: antitussive effect; effectiveness relative to iodinated glycerol in stimulating tracheal secretion of phenol red ([2]; oral, mice, times as effective as iodinated glycerol): about 90 times; antitussive effect [3]: antitussive effect
2 | CC(C)(C)NCC(O)c1ccc(O)c(CO)c1 (stereo not drawn) [Albuterol] | 0.18 | 1.30 ± 0.16 | 78.4 ± 22.9 | 1.60 ± 0.09 | 118.6 ± 11.6 | – | – | – | – | stimulated tracheal secretion of phenol red | dose-dependent increase | about 4 mg/kg | – | – | – | – | – | – | Phenol Red Secretion, Treated ([2]; oral dose 0.1 mg/kg): 0.85 ± 0.08 μg/10 g/hr; % Change in phenol red secretion ([2]; oral dose 0.1 mg/kg): 20.5 ± 10.6%
3 | CN(Cc1cc(Br)cc(Br)c1N)C1CCCCC1 [Bromhexine] | > 100 | – | – | – | – | – | – | 0.67 ± 0.10 | 0 ± 0 | – | weak to moderate nondose-related effect | – | 0.90 ± 0.10 | 40.6 ± 17.0 | – | – | – | – | significant increase in phenol red tracheal secretion ([2]; 3 or 30 mg/kg, p.o.): not at 3 or 30 mg/kg; increase in phenol red tracheal secretion ([2]; only at 100 mg/kg, p.o.): significant increase; Phenol Red Secretion, Treated ([2]; oral dose 3.0 mg/kg): 1.20 ± 0.13 μg/10 g/hr; % Change in phenol red secretion ([2]; oral dose 3.0 mg/kg): 20.9 ± 12.9%; bronchosecretogogue activity reported by others ([4]; 40 mg/kg, p.o., mice): little or no bronchosecretogogue activity
4 | CC(=O)N[C@@H](CS)C(=O)O [N-acetylcysteine] | 61.8 | – | – | – | – | 0.66 ± 0.06 | 2.3 ± 13.2 | – | – | – | dose-dependent increase | – | – | – | 1.00 ± 0.08 | 51.6 ± 10.6 | 1.30 ± 0.12 | 75.7 ± 1.5 | –
5 | [I-].[K+] [Potassium Iodide, potassium iodide] | – | – | – | – | – | – | – | – | – | stimulated tracheal secretion of phenol red | dose-dependent increase | ~4000 mg/kg | 1.47 ± 0.15 | 45.8 ± 14.2 | 0.67 ± 0.07 | 5.1 ± 11.2 | 0.96 ± 0.10 | 49.1 ± 12.2 | ED50 (dose stimulating tracheal secretion of phenol red by 50% over the control) ([2]; p.o.): ~ 200 mg/kg; ED50 (dose stimulating tracheal secretion of phenol red by 50% over the control) ([2]; p.o., listed as potassium iodide): ~ 200 mg/kg and 200 mg/kg
